Source: patent publication US9921224B2, “Use of CD36 to identify cancer subjects for treatment” (Children's Medical Center Corporation, priority 2013, dated 2018)
Where no end group is shown, it is not given here. [ ]: non-standard residue; d: D form.

Assays:
[1] = test system: AsPc1 human pancreatic cells; experiment: Pancreatic cancer mouse model; assay type: in vivo, SCID mice; details: for primary tumor mass: high CD36 AsPC pancreatic model, SCID mice, 20 or 40 mg/kg/day, from day 25 daily for 21 days
Protocol: For the pancreatic cancer mouse model, 1×10^6 AsPc1 human pancreatic cells were injected into the pancreas of SCID mice. Mice were treated either with a control or with the psap peptide dWlP (SEQ ID NO: 47, 20 mg/kg/day or 40/mg/kg/day). Treatment began on day 25 and continued daily for 21 days. The mice were then euthanized and the primary tumor mass was measured. The presence or absence of ascites was also measured.

[2] = test system: ovarian cancer cells expressing luciferase; experiment: Ovarian cancer mouse model (luciferase intensity); assay type: in vivo; details: high CD36 ovarian cancer model
Protocol: For the ovarian cancer mouse model, 1 million ovarian cancer cells expressing luciferase were injected intraperitoneally. Treatment was initiated 17 days later with cisplatin (4 mg/kg QOD), the psap peptide dWlP (SEQ ID NO: 47, 40 mg/kg QD), a combination of cisplatin and psap peptide, or PBS QD. Luciferase intensity was measured on several days beginning on about day 17 and measured over time.

[3] = test system: B16-B16 cells; experiment: Melanoma mouse model; assay type: in vivo, mice; details: low CD36 B16-B16 melanoma; 10 or 40 mg/kg; up to about 20-25 days post cell injection
Protocol: For the melanoma mouse model, B16-B16 cells were injected into mice. Mice were treated with either psap peptide dWlP (SEQ ID NO: 47, 10 or 40 mg/kg) or control. The volume of the tumor was measured over time up until about 20-25 days post cell injection.

[4] = test system: LLC cells; experiment: In vitro cell proliferation (MTT) assay, LLC cells; assay type: cell-based, murine; details: 48 hours after addition of serially diluted amounts
Protocol: Cell proliferation was measured using the MTT (3-{4,5-Dimethylthiazol-2-yl}-2,5-diphenyltetrazolium bromide, Sigma-Aldrich) assay. Cells were seeded in 50 uL growth medium in 96 well culture plates and allowed to attach overnight. 50 uL of growth medium plus two-fold concentrated treatment reagents were then added. After each treatment time point, 10 uL of 5% MTT solution (buffered in PBS) was added to each well. Plates were incubated for an additional 4 h at 37° C. to allow MTT to be metabolically converted into formazan crystals at cell mitochondria. The formazan crystals were finally solubilized by adding 100 ul of 10% Sodium Dodecyl Sulphate in 50% N—N-Dimethylformamide to each microplate well. Absorbances at 550 and 680 nm (corresponding to formazan salt and reference wavelengths, respectively) were measured using a colorimetry microplate reader. Wells containing only complete medium were used as controls. Each experiment was performed twice, using six replicates for each drug concentration.
To test this, LLC cells were treated with either recombinant Tsp-1 or DWLPK (SEQ ID NO: 2) Psap peptide and cell proliferation was measured using an MTT assay. […] This supports the hypothesis that Tsp-1 can act directly on cancer cells, as this assay was performed in vitro in the absence of any blood vessels.

[5] = test system: Ovarian cancer cells expressing CD36; experiment: Viability of ovarian cancer cells expressing CD36 treated with Tsp-1; assay type: cell-based; details: Tsp-1 100 ng, 500 ng or 1000 ng; 0 hours or 48 hours
Protocol: Ovarian cancer cells expressing CD36 were treated with either control or thrombospondin (Tsp-1, either 100 ng, 500 ng or 1000 ng) and the percent of viable cells was measured at 0 hours or 48 hours.

Substance	primary tumor mass [1]	primary tumor mass ([1]; listed as psap peptide)	mice that form ascites (inhibition of metastasis) ([1]; pancreatic cancer model, control: 4 of 10 mice)	metastatic disease ([2]; dWlP 40 mg/kg QD)	tumor response (luciferase intensity over time) ([2]; dWlP 40 mg/kg QD from day 17)	tumor growth (tumor volume over time) [3]	cell proliferation (MTT assay) [4]	percent of viable cells (Tsp-1 mediated cell killing) [5]
dWlP: psap peptide dWlP (SEQ ID NO: 47); lower case D and L indicate D-amino acids ([dD]W[dL]P)	primary tumor mass was inhibited	regressed	1 of 19	showed regression of metastatic disease	caused regression of cancer	inhibited tumor growth but did not regress the tumor		
DWLPK: DWLPK (SEQ ID NO: 2) Psap peptide, derived from a fragment of Saposin A (Psap peptide)							did not affect cell proliferation	
Tsp-1: recombinant thrombospondin (Tsp-1), a ligand of CD36							capable of decreasing cell proliferation	sensitive to Tsp-1 mediated cell killing in a dose-dependent manner
